According to ChEMBL document CHEMBL3885861, “Open TG-GATES”:

Species on record: Rattus norvegicus
Assay: Open TG-GATES - Regimen: Single
Type: toxicity, organism-based, Sprague-Dawley
Design: regimen Single, gender Male, age 6 weeks
Conditions: in vivo, po, 3 mg/kg, route gavage, dose level Low; for APTT / Bas / Eos / Fbg / Hb / Ht / Lym / MCH / MCHC / MCV / Mono / Neu / PT / Plat / RBC / Ret / WBC: tissue Blood; for KIDNEY_L / KIDNEY_R / KIDNEY_TOTAL: tissue Kidney; for LIVER: tissue Liver; for A/G / ALP / ALT / AST / BUN / CRE / Ca / Cl / DBIL / GLC / IP / K / LDH / Na / PL / RALB / TBIL / TC / TG / TP / gamma-GTP: tissue Plasma

C=CCO [ALLYL ALCOHOL]
TERMINAL_BW (3 h): 223.5 g | APTT (3 h): 18.8 s | Bas (3 h): 0% | Eos (3 h): 1% | Fbg (3 h): 234.6 mg/dL | Hb (3 h): 13.8 g/dL | Ht (3 h): 38.7% | Lym (3 h): 76% | MCH (3 h): 21.7 pg | MCHC (3 h): 35.6% | MCV (3 h): 60.9 fL | Mono (3 h): 3.2% | Neu (3 h): 19.8% | PT (3 h): 11.8 s | Plat (3 h): 126.8 x10_4/uL | RBC (3 h): 635.2 x10_4/ul | Ret (3 h): 6.4% | WBC (3 h): 81.6 x10_2/uL | KIDNEY_L (3 h): 1 g | KIDNEY_R (3 h): 1 g | KIDNEY_TOTAL (3 h): 2 g | LIVER (3 h): 10.2 g | A/G (3 h): 1.6 | ALP (3 h): 1094.8 IU/L | ALT (3 h): 37.4 IU/L | AST (3 h): 67.6 IU/L | BUN (3 h): 11.4 mg/dL | CRE (3 h): 0.4 mg/dL | Ca (3 h): 11.2 mg/dL | Cl (3 h): 100.6 meq/L | DBIL (3 h): 0.5 mg/dL | GLC (3 h): 195.2 mg/dL | IP (3 h): 8.6 mg/dL | K (3 h): 3.7 meq/L | LDH (3 h): 235.4 IU/L | Na (3 h): 139.8 meq/L | PL (3 h): 181 mg/dL | RALB (3 h): 3.5 g/dL | TBIL (3 h): 0.6 mg/dL | TC (3 h): 81 mg/dL | TG (3 h): 262 mg/dL | TP (3 h): 5.7 g/dL | gamma-GTP (3 h): 0.6 IU/L | TERMINAL_BW (6 h): 220.1 g | APTT (6 h): 19 s | Bas (6 h): 0% | Eos (6 h): 1% | Fbg (6 h): 220.8 mg/dL | Hb (6 h): 13.2 g/dL | Ht (6 h): 38.3% | Lym (6 h): 76% | MCH (6 h): 21 pg | MCHC (6 h): 34.3% | MCV (6 h): 61 fL | Mono (6 h): 3.8% | Neu (6 h): 18.8% | PT (6 h): 12.2 s | Plat (6 h): 122.5 x10_4/uL | RBC (6 h): 627.4 x10_4/ul | Ret (6 h): 7.1% | WBC (6 h): 102.5 x10_2/uL | KIDNEY_L (6 h): 0.9 g | KIDNEY_R (6 h): 1 g | KIDNEY_TOTAL (6 h): 1.9 g | LIVER (6 h): 9.4 g | A/G (6 h): 1.6 | ALP (6 h): 1095 IU/L | ALT (6 h): 33 IU/L | AST (6 h): 70.6 IU/L | BUN (6 h): 7.8 mg/dL | CRE (6 h): 0.4 mg/dL | Ca (6 h): 10.7 mg/dL | Cl (6 h): 102.8 meq/L | DBIL (6 h): 0.1 mg/dL | GLC (6 h): 192.4 mg/dL | IP (6 h): 8.7 mg/dL | K (6 h): 3.9 meq/L | LDH (6 h): 222.4 IU/L | Na (6 h): 141.2 meq/L | PL (6 h): 149.6 mg/dL | RALB (6 h): 3.4 g/dL | TBIL (6 h): 0.2 mg/dL | TC (6 h): 76.4 mg/dL | TG (6 h): 77.8 mg/dL | TP (6 h): 5.5 g/dL | gamma-GTP (6 h): 1 IU/L | TERMINAL_BW (9 h): 215.7 g | APTT (9 h): 18.7 s | Bas (9 h): 0% | Eos (9 h): 1.2% | Fbg (9 h): 221.8 mg/dL | Hb (9 h): 13.4 g/dL | Ht (9 h): 39.1% | Lym (9 h): 75.8% | MCH (9 h): 20.9 pg | MCHC (9 h): 34.3% | MCV (9 h): 61 fL | Mono (9 h): 3.2% | Neu (9 h): 20.2% | PT (9 h): 12.2 s | Plat (9 h): 124 x10_4/uL | RBC (9 h): 640.4 x10_4/ul | Ret (9 h): 6.9% | WBC (9 h): 65 x10_2/uL | KIDNEY_L (9 h): 1 g | KIDNEY_R (9 h): 1 g | KIDNEY_TOTAL (9 h): 2 g | LIVER (9 h): 9.1 g | A/G (9 h): 1.5 | ALP (9 h): 994.6 IU/L | ALT (9 h): 27.6 IU/L | AST (9 h): 59.2 IU/L | BUN (9 h): 9.6 mg/dL | CRE (9 h): 0.3 mg/dL | Ca (9 h): 10.5 mg/dL | Cl (9 h): 101.8 meq/L | DBIL (9 h): 0.08 mg/dL | GLC (9 h): 210.2 mg/dL | IP (9 h): 10.7 mg/dL | K (9 h): 3.8 meq/L | LDH (9 h): 169.2 IU/L | Na (9 h): 140.8 meq/L | PL (9 h): 143 mg/dL | RALB (9 h): 3.3 g/dL | TBIL (9 h): 0.1 mg/dL | TC (9 h): 71.8 mg/dL | TG (9 h): 62 mg/dL | TP (9 h): 5.5 g/dL | gamma-GTP (9 h): 0.8 IU/L | TERMINAL_BW (24 h): 232.9 g | APTT (24 h): 20.4 s | Bas (24 h): 0% | Eos (24 h): 1% | Fbg (24 h): 230 mg/dL | Hb (24 h): 13.6 g/dL | Ht (24 h): 39.9% | Lym (24 h): 78.8% | MCH (24 h): 20.5 pg | MCHC (24 h): 34% | MCV (24 h): 60.4 fL | Mono (24 h): 3.4% | Neu (24 h): 16.4% | PT (24 h): 11.7 s | Plat (24 h): 127.6 x10_4/uL | RBC (24 h): 660.4 x10_4/ul | Ret (24 h): 6.2% | WBC (24 h): 97.6 x10_2/uL | KIDNEY_L (24 h): 1 g | KIDNEY_R (24 h): 1 g | KIDNEY_TOTAL (24 h): 2 g | LIVER (24 h): 11.2 g | A/G (24 h): 1.5 | ALP (24 h): 863.4 IU/L | ALT (24 h): 35 IU/L | AST (24 h): 64.4 IU/L | BUN (24 h): 16 mg/dL | CRE (24 h): 0.4 mg/dL | Ca (24 h): 10.9 mg/dL | Cl (24 h): 101.8 meq/L | DBIL (24 h): 0.098 mg/dL | GLC (24 h): 202.8 mg/dL | IP (24 h): 7.2 mg/dL | K (24 h): 4 meq/L | LDH (24 h): 204.6 IU/L | Na (24 h): 141 meq/L | PL (24 h): 154.4 mg/dL | RALB (24 h): 3.4 g/dL | TBIL (24 h): 0.2 mg/dL | TC (24 h): 77 mg/dL | TG (24 h): 118.2 mg/dL | TP (24 h): 5.6 g/dL | gamma-GTP (24 h): 0.8 IU/L
